The values that follow come from ChEMBL document CHEMBL1201862, “PubChem BioAssay data set” (2004).

Structures are written as SMILES.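 Assay format: 96-well plates, 48-hour exposure. GI50 marks 50% less growth.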 Calls of active or inactive are those of the source. Cut-off read from the data, not from the text of the source: active = GI50 up to about 1.1 µM and inactive = higher.

Among the test systems are 786-0; A498; ACHN; CCRF-CEM; DLD-1; DMS-273; HCC 2998; HCT-15; HOP-18; KM12; M14; M19-MEL; OVCAR-8; SR; XF498; BT-549; Hs-578T; MDA-MB-231; MDA-N; PC-3.
Common to all, as to assay: NCI tumour cell line growth inhibition, 48 h

For the molecule `CCOC(=O)c1ccc(C)c(/N=N/N(C)C)c1`, the GI50 in the assay with 786-0, in the assay with A498, in the assay with ACHN, with CCRF-CEM, in the assay with DLD-1 and with DMS-273 was > 100 µM (inactive) each time. Also, the GI50 in the assay with HCC 2998 is > 100 µM (inactive); in the assay on HCT-15, over 100 µM; in the assay with HOP-18 it was 4.32 µM (inactive); in the assay on KM12 it was > 100 µM (inactive); in the assay on M14 it was > 100 µM (inactive); in the assay with M19-MEL, > 100 µM (inactive). Further, the GI50 with OVCAR-8 was > 100 µM (inactive); in the assay on SR, 93.1 µM (inactive); with XF498, > 100 µM (inactive).

With `CCCCS(=N)(=O)CC[C@H](N)C(=O)O` (some centres undefined) [BUTHIONINE SULFOXIME], the GI50 was 4820 µM (inactive) in the assay on A498; > 5000 µM (inactive) with ACHN; > 5000 µM (inactive) in the assay on BT-549; 1040 µM (inactive) with CCRF-CEM; > 5000 µM (inactive) in the assay with DLD-1; > 5000 µM (inactive) in the assay on DMS-273. The GI50 is > 5000 µM (inactive) in the assay on HCC 2998; 4250 µM in the assay with HCT-15; > 5000 µM (inactive) in the assay on HOP-18; > 2810 µM (inactive) in the assay on Hs-578T; > 5000 µM (inactive) in the assay with KM12; > 5000 µM (inactive) with M14. For the same molecule, the GI50 in the assay with M19-MEL was > 5000 µM (inactive); in the assay on MDA-MB-231, > 5000 µM (inactive); with MDA-N it was > 10000 µM (inactive); in the assay on OVCAR-8, 2320 µM (inactive); with PC-3, > 5000 µM (inactive); in the assay on SR, 286 µM (inactive). The GI50 with XF498 was 476 µM (inactive).
